This test has as its system β-catenin/TCF-responsive TOPFlash reporter. Briefly: TOPFlash reporter assay in H9 human ESCs. The class given is cell-based. Conditions: 24 h. The procedure: (A) TOPFlash™ assay in H9 human ESCs subjected to the indicated treatments for 24 h. Data represent mean±s.d. of three biological replicates. (B) Representative phase contrast and alkaline phosphatase (AP) staining images of H9 human ESCs cultured in the indicated conditions for 3 passages. (C) Phase contrast images of H9 human ESCs cultured in CHIR/XAV or CHIR/IWR-1 for 11 passages. (D) Colony forming efficiency assay of H9 human ESCs cultured in FGF2 or CHIR/IWR-1 conditions. Data represent mean±s.d. of three biological replicates. Right panel: a representative image showing AP staining of colonies formed from H9 human ESCs cultured in either FGF2 or CHIR/IWR-1 condition. (E) Human ESCs cultured in CHIR/IWR-1 for 11 passages were immunostained with the indicated antibodies. (F) Embryoid bodies (EBs) were generated from H9 human ESCs cultured in CHIR/IWR-1 for 11 passages. The outgrowths of EBs were immunostained with the indicated antibodies. (G) H&E staining of teratomas generated from H9 ESCs cultured in CHIR/IWR-1 for 20 passages. (H) Western blot analysis of Axin1 and Axin2 expression in HES3 human ESCs treated with the indicated cytokines/inhibitors for 24 h. (I) Immunofluorescence images of H9 human ESCs (passage 5 in CHIR) overexpressing Flag-tagged Axin2. (J) Representative phase contrast and immunofluorescence images of HES2 human ESCs overexpressing ΔNβ-catenin-ERT2 at passage 5 in basal medium only. These cells were cultured in basal medium only for more than 10 passages and remained morphologically undifferentiated. (K) Phase contrast images of HES2 human ESCs overexpressing ΔNβ-catenin (left panel, passage 2 in basal medium/FGF2) or ΔNβ-catenin/A295W/I296W mutant (right panel, passage 5 in basal medium only). Scale bars, 50 μm (B, C, E-G, and I-K). (L) Model of mouse EpiSC and human ESC self-renewal mediated by β-catenin. In the absence of Wnt or GSK3 inhibitor, a β-catenin destruction complex, containing Axin1, GSK3, and APC is formed, leading to the degradation of β-catenin and differentiation (left). In the presence of Wnt or GSK3 inhibitor, β-catenin is stabilized and can initiate cellular responses related to both self-renewal and differentiation. Stabilized β-catenin induces differentiation when it translocates into the nucleus and binds TCFs to activate downstream targets (middle). Addition of XAV or IWR-1 stabilizes Axin2. […]
For quantifying relative Oct3/4 enhancer activities, pGL3-Oct4 DE and pGL3-Oct4 PE plasmids (gifts from Hans Schöler's lab) were co-transfected with the Renilla vector, using the Amaxa™ Transfection Kit (Lonza). […] For quantifying relative β-catenin/Tcf transcriptional activity, pGL2-SuperTOP™ plasmid (gift from Randall Moon) was co-transfected with the Renilla vector and assayed accordingly.

Turning to `Oc1nc(-c2ccc(C(F)(F)F)cc2)nc2c1CSCC2` [XAV939, 3,5,7,8-Tetrahydro-2-[4-(trifluoromethyl)phenyl]-4H-thiopyrano[4,3-d]pyrimidin-4-one], the “effect on TOPFlash activity induced by CHIR” value (added to CHIR) is given as “abolished this TOPFlash™ activity”.

Turning to `Cc1c[nH]c(-c2cnc(NCCNc3ccc(C#N)cn3)nc2-c2ccc(Cl)cc2Cl)n1` [CHIR99021, 6-((2-((4-(2,4-Dichlorophenyl)-5-(4-methyl-1H-imidazol-2-yl)pyrimidin-2-yl)amino)ethyl)amino)nicotinonitrile], the TOPFlash reporter activity entry is “strongly induced”.

The values are drawn from patent US20130273649A1, “Culture medium for pluripotent stem cells” (UNIVERSITY OF SOUTHERN CALIFORNIA, priority 2012, published 2013).
